# Results reported in US20070043070A1, “Weak base salts” (priority 2000, published 2007).
# “Also recorded” adds a separate entry of the source. Structures can show the parent of a compound that is named as a salt. Where two headings read alike, the source gives them in different places. Marks after values point to notes of the source that are not given here.
# Legend:
# [1] = cited from earlier work; for pKa: weak base compounds
# [2] = Dissolution studies in Millipore water; assay type: physicochemical; conditions: for completeness of dissolution: 60 min; for t40% (time for dissolution of 40% of given amount): water, amount equivalent to 50 mg carbendazim; for dissolution compared, in words: dissolution profiles
# [3] = Moisture sorption studies (desiccators at 43% and 81% RH, 25° C., 8 days; PXRD of the solid afterwards); assay type: physicochemical; conditions: for Hygroscopicity: gain of moisture: hygrostat for 8 days at 43% RH; for PXRD pattern / solid state form after storage / moisture adsorbed: 8 days; for hygroscopicity in words: 43 and 81% RH; for moisture adsorbed: 25° C.
# Protocol: The PXRD patterns of different salts of carbendazim were determined at ambient temperature and atmosphere using a Philips PM 990/100 diffractometer (Philips, The Netherlands). The x-ray generator (PW3373/00 Cu LFF DK119706) has a copper radiation source which generates a voltage of 50 kV, and a current of 40 mA. Counts were measured using a X'Celerator detector which is based on real time multiple strip (RTMS) technology. Samples were packed into zero background silicon sample holders, and precautions were used to avoid introducing preferred orientation of the crystallites. The samples were subjected to a spinning movement having a rotation time of 4 s. The samples were scanned with the diffraction angle, 2θ, increasing from 3° to 63°, with a step size of 0.0167° and a counting time of 15.24 s. The XRD pattern traces of samples (salts subjected to moisture sorption or stability) were compared with regard to peak position and relative intensity, peak shifting, and the presence or lack of peaks in certain angular regions.
# The moisture sorption of the various salts was determined by exposing weighed amounts (˜2 to 3 mg) of salts in a 4 ml glass vial, which was placed in sealed desiccators containing saturated salt solutions. Saturated salt solutions that give defined relative humidities (as a function of temperature) have been reported in various handbooks containing physical and chemical data.
# The current study was performed at 25° C. with relative humidity values of 43% (saturated solution of potassium carbonate) and 81% (saturated solution of potassium bromide). The samples were stored in desiccators of known relative humidity for 8 days, following which they were re-weighed to calculate the % weight change. The solid phases were then analyzed using PXRD to ascertain the effect of the moisture content.
# [4] = Solubility determination of carbendazim salts in water (HPLC); conditions: for pH: saturated solution in water, Table 13; for PHmax: pH below which solubility plateaus or decreases (solution saturated with respect to salt)
# Protocol: These were mixed by end-to-end rotation. Each sample was then filtered through a 0.45 μm PVDF filter. The filterate was collected in two or more fractions, which were analyzed separately by HPLC to ensure that there were no misleading solubility measurements resulting from adsorption onto the filter. Filter adsorption was assumed to be negligible when the concentration of successive fractions agreed within ±5%. The composition of the residual solid was examined to ensure that at least some of the solid phase that was in equilibrium with the solution was indeed the salt.
# The Ksp determinations were generally calculated directly from the observed carbendazim concentration once it was established that the residual solid phase contained excess salt. Since […] results in the neutralization of an equivalent amount of counterion to its free base form, the same procedure could be used to calculate Ksp in systems where free acid precipitation occurred prior to saturation of the system with the given salt.
# A Beckman Gold HPLC system equipped with a model no. 168 detector at 280 nm was used for all assays. […] The flow rate was controlled at 0.8 ml/min, with carbendazim's retention time at 3.5 min. The injection volume was 20 μL. The evaluation of the assay was conducted by using carbendazim standard solutions at concentrations ranging from 0.1 μg/ml to 100 μg/ml.
# [5] = Dissolution studies in 0.1N hydrochloric acid; assay type: physicochemical; conditions: for t60% (time for dissolution of 60% of given amount): pH 1, amount equivalent to 50 mg carbendazim
# Protocol: A weighed amount of salt (so as to have 50 mg of carbendazim) was triturated to provide a uniform particle size and was suspended in the dissolution media. The volume of dissolution media was 250 ml, and the stirring rate was maintained at 250 rpm. One ml aliquot samples filtered through a 0.45 μm Millipore filter were withdrawn at 1, 5, 10, 15, 20, 30, 45, and 60 min, respectively. One ml of the dissolution medium was added to the dissolution vessel after each sampling period to maintain constant volume. The samples were then analyzed by HPLC.
# [6] = Dehydration kinetics by TGA (Flynn and Wall method); assay type: physicochemical; conditions: TGA heating rates 5-15° C. per minute
# Protocol: TGA traces were recorded with a TA Instruments TGA Q-50 (TA Instruments, New Castle, Del.). The sample weight was approximately 2-4 mg, and heating rates of 2-15° C./min under nitrogen gas flow of 60 ml/min were used.
# The dehydration kinetics of carbendazim hydrochloride dihydrate was studied by subjecting the crystals to TGA heating rates of 5, 7, 10, 12, and 15° C. per minute. The activation energy (Ea) for the dehydration process was calculated from these TGA data according to the method described by Flynn and Wall (J. H. Flynn and L. A. Wall, J. Research Nat. Bur. Standards A, Phys. Chem. A71, 25 (1967); J. Polym. Sci., Pol. Left. 5, 191 (1967); J. Polym. Sci., Pol. Lett. 4, 323 (1966)). This method involves the analysis of weight loss versus temperature at different heating rates (β) to determine the corresponding absolute temperatures at a constant weight loss (C). Graphs of negative logarithm of heating rates (expressed in ° C./s) (−log β) versus 1/T were plotted (FIG. 8) and the activation energy calculated from the slope of the curves. The activation energy for the dehydration of the hydrochloride salt, calculated from the TGA data, was ˜64 kJ/mol.
molecule,measurement,setting,value
Cc1cc(-c2nc3ccccc3s2)ccc1N [AMPB],pKa,[1],4
Cc1cc(NC(=O)NC(=O)c2ccccc2N(C)C)ccc1Oc1ncc(Br)cn1 [BPU NSC 639829],pKa,[1],˜5
O=S(=O)(O)c1ccccc1 [Benzenesulfonic acid],Pka1,"[1]; acids used as counter-ions, Table 1",0.7
CCCCOC(=O)c1ccc(N)cc1 [Butamben],pKa,[1],5.4
CN/C(=N\CCSCc1nc[nH]c1C)NC#N [Cimetadine],pKa,[1],6.8
"COC(=O)Nc1nc2ccccc2[nH]1 [Free Base, carbendazim, reference compound]",dissolved fraction of the initial dose,"[2]; Millipore water, after 60 min",less than 1%
same,Hygroscopicity: gain of moisture,[3],Gain 0.36%
same,S (aqueous solubility),[4],0.006 mg/mL
same,Sw,[4],0.006 mg/mL
same,pH of saturated sol.,[4],5.90
same,completeness of dissolution,[5]; 0.1N HCl,completely soluble
same,t60% (time for dissolution of 60% of given amount),[5],5 min
CC(=O)O.CCCCCCCCCCCCCCCCCC1=NCCN1 [Glyodin],pKa,[1],˜7
"COC(=O)Nc1nc2ccccc2[nH]1 [Hydrochloride, carbendazim hydrochloride]",completeness of dissolution,[2]; Millipore water,did not completely dissolve
same,t40% (time for dissolution of 40% of given amount),[2],˜5 min
same,activation energy for the dehydration,[6],~64 kJ/mol
same,PXRD pattern / solid state form after storage,[3]; 43% RH,remained unchanged
same,hygroscopicity in words,[3],minimally hygroscopic
same,PXRD pattern / solid state form after storage,[3]; 81% RH,remained unchanged
same,Hygroscopicity: gain of moisture,[3]; hydrochloride,Gain 0.13%
same,S (aqueous solubility),[4],6.080 mg/mL
same,Sw,[4],6.080 mg/mL
same,pH of saturated sol.,[4],1.68
same,pH,[4]; 25° C.,1.68
same,t60% (time for dissolution of 60% of given amount),[5]; hydrochloride,2 to 3 min
Clc1ccc(COC(Cn2ccnc2)c2ccc(Cl)cc2Cl)c(Cl)c1 (stereo not shown) [Miconazole],pKa,[1],6.7
CCN(CC)C(=O)c1cccnc1 [Nikethamide],pKa,[1],3.5
carbendazim besylate,completeness of dissolution,[2]; Millipore water,did not completely dissolve
same,t40% (time for dissolution of 40% of given amount),[2],˜5 min
same,PXRD pattern / solid state form after storage,[3]; 43% RH,remained unchanged
same,moisture adsorbed,[3]; 81% RH,approximately 4.3%
same,PXRD pattern / solid state form after storage,[3]; 81% RH,remained unchanged
same,Hygroscopicity: gain of moisture,[3],Gain 0.18%
same,pH of saturated sol.,[4]; Table 14,1.76
same,PHmax,[4],1.65
same,pH,[4]; 25° C.,1.76
same,S (aqueous solubility),"[4]; water, 25° C.",6.992 mg/mL
same,Sw,"[4]; water, Table 14",6.992 mg/mL
same,t60% (time for dissolution of 60% of given amount),[5],2 to 3 min
carbendazim hemisulfate monohydrate,completeness of dissolution,[2]; Millipore water,did not completely dissolve
same,t40% (time for dissolution of 40% of given amount),[2],˜3 min
same,PXRD pattern / solid state form after storage,[3]; 43% RH,remained unchanged
same,hygroscopicity in words,[3],minimally hygroscopic
same,PXRD pattern / solid state form after storage,[3]; 81% RH,remained unchanged
same,Hygroscopicity: gain of moisture,[3],Gain 0.38%
same,t60% (time for dissolution of 60% of given amount),[5],2 to 3 min
carbendazim mesylate,time to complete dissolution,[2]; Millipore water,≤ 30 min
same,"dissolution compared, in words",[2]; Millipore water,dissolved the fastest; also recorded: best dissolution time
same,t40% (time for dissolution of 40% of given amount),[2],<1 min
same,PXRD pattern / solid state form after storage,[3]; 43% RH,"moisture, same"
same,hygroscopicity in words,[3],highly hygroscopic
same,moisture adsorbed,[3]; 81% RH,10.1%
same,PXRD pattern / solid state form after storage,[3]; 81% RH,showed changes in their PXRD patterns
same,Hygroscopicity: gain of moisture,[3],Gain 2.04%
same,pH of saturated sol.,[4]; Table 14,0.80
same,pH,[4]; 25° C.,0.8
same,S (aqueous solubility),"[4]; water, 25° C.",> 205.662 mg/mL
same,S (aqueous solubility),"[4]; water, 25° C., listed as mesylate",> 200 mg/mL
same,Sw,"[4]; water, Table 14",>205.662* mg/ml
same,time for dissolving 100% of sample,"[5]; 0.1N HCl, pH 1.1",instanteously soluble
same,t60% (time for dissolution of 60% of given amount),[5],1 min
carbendazim phosphate,completeness of dissolution,[2]; Millipore water,did not completely dissolve
same,"dissolution compared, in words",[2]; Millipore water,better dissolution than the 1:1 physical mixture
same,t40% (time for dissolution of 40% of given amount),[2],˜5 min
same,PXRD pattern / solid state form after storage,[3]; 43% RH,changed.
same,PXRD pattern / solid state form after storage,"[3]; 43% RH, listed as phosphate",loses intensity in 28 0 2E reflection
same,PXRD pattern / solid state form after storage,"[3]; 43% RH, listed as phosphate salt",change form
same,hygroscopicity in words,[3],highly hygroscopic
same,moisture adsorbed,[3]; 81% RH,7.5%
same,PXRD pattern / solid state form after storage,[3]; 81% RH,showed changes in their PXRD patterns
same,Hygroscopicity: gain of moisture,[3],Gain 0.88%
same,t60% (time for dissolution of 60% of given amount),[5],2 to 3 min
carbendazim tosylate,completeness of dissolution,[2]; Millipore water,did not completely dissolve
same,t40% (time for dissolution of 40% of given amount),[2],˜5 min
same,PXRD pattern / solid state form after storage,[3]; 43% RH,remained unchanged
same,moisture adsorbed,[3]; 81% RH,approximately 4.3%
same,PXRD pattern / solid state form after storage,[3]; 81% RH,remained unchanged
same,Hygroscopicity: gain of moisture,[3],Gain 0.27%
same,pH of saturated sol.,[4]; Table 14,1.93
same,Ksp,[4]; calculated after correcting for common ion effect,4.1 × 10^−4 M^2
same,PHmax,[4],1.82
same,pH,[4]; 25° C.,1.93
same,S (aqueous solubility),"[4]; water, 25° C.",4.815 mg/mL
same,Sw,"[4]; water, Table 14",4.815 mg/mL
same,t60% (time for dissolution of 60% of given amount),[5],2 to 3 min
